This is an account of results in patent US10858335B2 (Rigel Pharmaceuticals, Inc., priority 2014, dated 2020).

Molecules are shown by their SMILES.

In this assay the test system is GDF8 signaling (p-SMAD-3 (Ser423/425)). The assay is described as follows: AlphaScreen SureFire SMAD3 (p-Ser423/425) assay, GDF8-stimulated cells (GDF pSMAD). The assay is classed as cell-based. Particulars: Mus musculus, MPC-11, MPC11; GDF8-stimulated; p-SMAD3 AlphaScreen; read-out: GDF pSMAD (MPC11) (inhibition of GDF8 signaling). An excerpt:
Biological Example 1: AlphaScreen® SureFire® SMAD3 (p-Ser423/425) Assay
The p-SMAD-3 (Ser423/425) SureFire® assay has been designed to measure the phosphorylation of endogenous cellular p-SMAD-3 (Ser423/425) in cell lysates and is a system for the screening of both modulators of receptor activation (e.g. agonists and antagonists) as well as agents acting intracellularly, such as small molecule inhibitors of upstream events. The assay will measure p-SMAD-3 (Ser423/425) activation by either cloned or endogenous receptors, and can be applied to primary cells.
P-SMAD-3 (Ser423/425) SureFire® Assay Protocols
Step A: Preparation of Buffers
1× Lysis buffer: 1 ml of 5× Lysis buffer was diluted with 4 ml of sterile water. After dilution, excess 1× Lysis buffer can be frozen and thawed up to 5 times without loss in activity.
Activation buffer: The buffer was warmed slowly to 37° C. and gently mixed to re-suspend. Activation buffer can be stored at room temperature with no loss in activity.
Reaction buffer: The buffer was kept at 4° C. while in use.
AlphaScreen® Protein A IgG Kit: The kit was stored at 4° C. in the dark.
Reaction buffer+Activation buffer+AlphaScreen® Acceptor beads: Reaction buffer (40 parts), Activation Buffer (10 parts) and Acceptor beads (1 part) were mixed and the mixture was stored at room temperature and used the same day. Mixture was added to 384-well plates; excess mixture was discarded.
Dilution buffer+AlphaScreen® Donor beads: Dilution buffer (20 parts) and Donor beads (1 part) were mixed and the mixture was stored at room temperature and used the same day. Excess mixture was discarded.
Assay control samples: After reconstitution in 250 μl of water, lysates were at −20° C. in single use aliquots.
Step B: Preparation of Samples and Cells
96-well Assay Protocol for 293FT and RMS13 adherent cells can be carried out manually or in high throughput with liquid handling robots.
The cells (80 μL of cells for 96 well plates) were plated in collagen coated tissue culture plates in RPMI or FreeStyle medium (Invitrogen) and incubated overnight. For manual analysis, 6 plates for GDF8, 6 plates for TGFβ, and optionally 6 plates for AlkSca(ALK5 constitutively active) were used.
The compound dilution plates were prepared as follows: 12 μL of DMSO was transferred into first column of 96-well plate, and 16 μL of DMSO was transferred into columns 2-12 of the 96-well plate. 12 μL of compound solution was transferred into first column of the DMSO-containing 96-well plate. Three-fold dilution was performed up to column 10 of the DMSO-containing 96-well plate.
Step C: Treatment and Analysis
The plate containing cells were treated with compounds for about 10 minutes, and then ligand was added. GDF8 or TGFb was added to plates to stimulate. 293FL cells were stimulated for 90 minutes at 37° C.; and RMS13 cells were stimulated for 60 minutes at 37° C. The medium was then removed from the cells, and 1× Lysis Buffer (about 25 μL) was added and the plate was gently agitated on plate shaker for 5-10 minutes.
The lysate (5 μL) was then placed into 384-well shallow plates avoiding the generation of bubbles. To this, the Reaction Buffer+Activation Buffer+AlphaScreen® Acceptor beads mixture (5 μL) was added. The plate was sealed with adhesive cover and shielded from light (e.g., with metal foil), and agitated gently on plate shaker for 2 hours at room temperature.
Dilution buffer+AlphaScreen® Donor beads (2 μL) was then added, and the plate was intubated on the plate shaker for an additional 1½ hours. After completion, the plate was read on Synergy-4 or Enspire plate reader, using AlphaScreen® pSMAD3® settings.
Representative results for inhibition of GDF8 signaling are shown in Table 2(data=GDF pSMAD (MPC11) (μM)): […]
A general note: Alpha assays give light when donor and acceptor beads are brought close together.

Regarding `N#Cc1cccc(-c2ncccc2-c2ccc3[nH]ncc3c2)c1` [Compound 112, 3-(3-(1H-Indazol-5-yl)pyridin-2-yl)benzonitrile], the IC50 turned out to be 273 nM.

In the case of `COc1cccc(-c2ncccc2-c2ccc3[nH]ncc3c2)c1` [Compound 117, 5-(2-(3-Methoxyphenyl)pyridin-3-yl)-1H-indazole], the IC50 worked out at 179 nM.

On to `COc1ccc(-c2ncccc2-c2ccc3[nH]ncc3c2)cc1` [Compound 118, 5-(2-(4-Methoxyphenyl)pyridin-3-yl)-1H-indazole], for which the IC50 was determined as 3780 nM.

With `Oc1cccc(-c2ncccc2-c2ccc3[nH]ncc3c2)c1` [Compound 120, 3-(3-(1H-Indazol-5-yl)pyridin-2-yl)phenol], the IC50 is 364 nM.

Take `Oc1ccc(-c2ncccc2-c2ccc3[nH]ncc3c2)cc1` [Compound 121, 4-(3-(1H-Indazol-5-yl)pyridin-2-yl)phenol]: the IC50 is 5350 nM.

As to `Cc1cc(-c2ncccc2-c2ccc3[nH]ncc3c2)ccc1O` [Compound 122, 4-(3-(1H-Indazol-5-yl)pyridin-2-yl)-2-methylphenol], the IC50 turned out to be 4040 nM.

Regarding `COc1cc(-c2ncccc2-c2ccc3[nH]ncc3c2)ccc1F` [Compound 124, 5-(2-(4-Fluoro-3-methoxyphenyl)pyridin-3-yl)-1H-indazole], the IC50 is 548 nM.

For `Fc1ccc(-c2ncccc2-c2cnc3cn[nH]c3c2)cc1F` [Compound 137, 6-(2-(3,4-Difluorophenyl)pyridin-3-yl)-1H-pyrazolo[4,3-b]pyridine], the IC50 was found to be 22800 nM.

Regarding `Cc1cc(-c2ncccc2-c2cnc3cn[nH]c3c2)ccc1F` [Compound 138, 6-(2-(4-Fluoro-3-methylphenyl)pyridin-3-yl)-1H-pyrazolo[4,3-b]pyridine], the IC50 was found to be 4330 nM.

Turning to `Cc1cccc(-c2ncccc2-c2cnc3cn[nH]c3c2)c1` [Compound 139, 6-(2-m-Tolylpyridin-3-yl)-1H-pyrazolo[4,3-b]pyridine], the IC50 turned out to be 3370 nM.

On to `Cc1ccc(F)c(-c2ncccc2-c2cnc3cn[nH]c3c2)c1` [Compound 140, 6-(2-(2-Fluoro-5-methylphenyl)pyridin-3-yl)-1H-pyrazolo[4,3-b]pyridine], for which the IC50 was 2890 nM.

As for `N#Cc1cccc(-c2ncccc2-c2cnc3cn[nH]c3c2)c1` [Compound 141, 3-(3-(1H-Pyrazolo[4,3-b]pyridin-6-yl)pyridin-2-yl)benzonitrile], the IC50 was found to be 18600 nM.

For `COc1cccc(-c2ncccc2-c2cnc3cn[nH]c3c2)c1` [Compound 142, 6-(2-(3-Methoxyphenyl)pyridin-3-yl)-1H-pyrazolo[4,3-b]pyridine], the IC50 was 1190 nM.

For the molecule `COc1cc(-c2ncccc2-c2cnc3cn[nH]c3c2)ccc1F` [Compound 143, 6-(2-(4-Fluoro-3-methoxyphenyl)pyridin-3-yl)-1H-pyrazolo[4,3-b]pyridine], the IC50 was 12200 nM.

For the molecule `Oc1cccc(-c2ncccc2-c2cnc3cn[nH]c3c2)c1` [Compound 144, 3-(3-(1H-Pyrazolo[4,3-b]pyridin-6-yl)pyridin-2-yl)phenol], the IC50 turned out to be 9390 nM.

Turning to `Cc1cc(-c2ncccc2-c2ccc3c(cnn3C)c2)ccc1F` [Compound 145, 5-(2-(4-Fluoro-3-methylphenyl)pyridin-3-yl)-1-methyl-1H-indazole], the IC50 worked out at 1130 nM.

Take `Cc1cccc(-c2ncccc2-c2ccc3c(cnn3C)c2)c1` [Compound 146, 1-Methyl-5-(2-m-tolylpyridin-3-yl)-1H-indazole]: the IC50 was found to be 621 nM.

Turning to `CCc1cccc(-c2ncccc2-c2ccc3[nH]ncc3c2)c1` [Compound 149, 5-(2-(3-Ethylphenyl)pyridin-3-yl)-1H-indazole], the IC50 worked out at 642 nM.

For `c1cc(-c2ncccc2-c2ccc3[nH]ncc3c2)cc(C2CC2)c1` [Compound 150, 5-(2-(3-Cyclopropylphenyl)pyridin-3-yl)-1H-indazole], the IC50 is 208 nM.

`CCc1cccc(-c2ncccc2-c2cnc3[nH]ncc3c2)c1` [Compound 151, 5-(2-(3-Ethylphenyl)pyridin-3-yl)-1H-pyrazolo[3,4-b]pyridine]: the IC50 was determined as 678 nM.

Turning to `c1cc(-c2ncccc2-c2cnc3[nH]ncc3c2)cc(C2CC2)c1` [Compound 152, 5-(2-(3-Cyclopropylphenyl)pyridin-3-yl)-1H-pyrazolo[3,4-b]pyridine], the IC50 came out at 48.7 nM.

Turning to `Cc1ccc(F)c(-c2ncccc2-c2cnc3[nH]ncc3c2)c1` [Compound 153, 5-(2-(2-Fluoro-5-methylphenyl)pyridin-3-yl)-1H-pyrazolo[3,4-b]pyridine], the IC50 worked out at 450 nM.

As to `N#Cc1cccc(-c2ncccc2-c2cnc3[nH]ncc3c2)c1` [Compound 154, 3-(3-(1H-Pyrazolo[3,4-b]pyridin-5-yl)pyridin-2-yl)benzonitrile], the IC50 was determined as 1310 nM.

Regarding `COc1cccc(-c2ncccc2-c2cnc3[nH]ncc3c2)c1` [Compound 155, 5-(2-(3-Methoxyphenyl)pyridin-3-yl)-1H-pyrazolo[3,4-b]pyridine], the IC50 was determined as 224 nM.

Take `Oc1cccc(-c2ncccc2-c2cnc3[nH]ncc3c2)c1` [Compound 156, 3-(3-(1H-Pyrazolo[3,4-b]pyridin-5-yl)pyridin-2-yl)phenol]: the IC50 was found to be 1790 nM.

With `COc1cc(-c2ncccc2-c2cnc3[nH]ncc3c2)ccc1F` [Compound 157, 5-(2-(4-Fluoro-3-methoxyphenyl)pyridin-3-yl)-1H-pyrazolo[3,4-b]pyridine], the IC50 worked out at 1560 nM.

As for `N#Cc1cc(-c2ncccc2-c2cnc3[nH]ncc3c2)ccc1F` [Compound 158, 5-(3-(1H-Pyrazolo[3,4-b]pyridin-5-yl)pyridin-2-yl)-2-fluorobenzonitrile], the IC50 is 1860 nM.

With `Cc1cc(-c2ncccc2-c2ccc3ncsc3c2)ccc1F` [Compound 159, 6-(2-(4-Fluoro-3-methylphenyl)pyridin-3-yl)benzo[d]thiazole], the IC50 stood at 130 nM.

As for `Cc1cccc(-c2ncccc2-c2ccc3ncsc3c2)c1` [Compound 160, 6-(2-m-Tolylpyridin-3-yl)benzo[d]thiazole], the IC50 turned out to be 84.3 nM.

As for `Cc1cc(-c2ncccc2-c2ccc3nncn3c2)ccc1F` [Compound 161, 6-(2-(4-Fluoro-3-methylphenyl)pyridin-3-yl)-[1,2,4]triazolo[4,3-a]pyridine], the IC50 turned out to be 9100 nM.

For `Cc1cccc(-c2ncccc2-c2ccc3nncn3c2)c1` [Compound 162, 6-(2-m-Tolylpyridin-3-yl)-[1,2,4]triazolo[4,3-a]pyridine], the IC50 was 5660 nM.

In the case of `Cc1cc(-c2ncccc2-c2ccc3nccn3c2)ccc1F` [Compound 165, 6-(2-(4-Fluoro-3-methylphenyl)pyridin-3-yl)imidazo[1,2-a]pyridine], the IC50 was 265 nM.

For `Cc1cccc(-c2ncccc2-c2ccc3nccn3c2)c1` [Compound 166, 6-(2-m-Tolylpyridin-3-yl)imidazo[1,2-a]pyridine], the IC50 stood at 109 nM.

For `CC(C)c1cccc(-c2ncccc2-c2cnc3[nH]ncc3c2)c1` [Compound 167, 5-(2-(3-Isopropylphenyl)pyridin-3-yl)-1H-pyrazolo[3,4-b]pyridine], the IC50 came out at 17500 nM.

Regarding `C1=C(c2cccc(-c3ncccc3-c3cnc4[nH]ncc4c3)c2)CCC1` [Compound 170, 5-(2-(3-Cyclopentenylphenyl)pyridin-3-yl)-1H-pyrazolo[3,4-b]pyridine], the IC50 turned out to be 1960 nM.

Regarding `Cc1cc(-c2ncccc2-c2cc3cn[nH]c3cc2C)ccc1F` [Compound 173, 5-(2-(4-Fluoro-3-methylphenyl)pyridin-3-yl)-6-methyl-1H-indazole], the IC50 was 1830 nM.

As to `Cc1cccc(-c2ncccc2-c2cc3cn[nH]c3cc2C)c1` [Compound 174, 6-Methyl-5-(2-m-tolylpyridin-3-yl)-1H-indazole], the IC50 was 1180 nM.
